Results: patent US11130743B2, “Heterocyclic ligands of PAR1 and methods of use” (Marquette University, priority 2019, dated 2021)
Values after ≈ are worked out from the molar mass of the structure shown.

Legend:
PAR1 [1] = biological target: T1, PAR1 (Homo sapiens, UniProt P25116); assay: PAR1 (TFLLRN-NH2)-driven intracellular calcium mobilization (iCa2+) assay with Ea.hy926 cells; type: cell-based; conditions: for inhibition at 10 µM: EA.hy 926, 10 μM compound, 5 μM TFLLRN-NH2, adherent EA.hy926 endothelial cells, n=4 wells, ± SEM, read-out: iCa2+ assay % Inhib; for iCa2+ assay pIC50 / IC50: 5 μM TFLLRN-NH2, EA.hy926 cells, curves fitted to 3 wells per concentration; for IC50: read-out: iCa2+ assay pIC50 (converted)
T1 construct: endogenous in cells; host or cells: EA.hy926 endothelial cells
T1 sequence (P25116 22-425): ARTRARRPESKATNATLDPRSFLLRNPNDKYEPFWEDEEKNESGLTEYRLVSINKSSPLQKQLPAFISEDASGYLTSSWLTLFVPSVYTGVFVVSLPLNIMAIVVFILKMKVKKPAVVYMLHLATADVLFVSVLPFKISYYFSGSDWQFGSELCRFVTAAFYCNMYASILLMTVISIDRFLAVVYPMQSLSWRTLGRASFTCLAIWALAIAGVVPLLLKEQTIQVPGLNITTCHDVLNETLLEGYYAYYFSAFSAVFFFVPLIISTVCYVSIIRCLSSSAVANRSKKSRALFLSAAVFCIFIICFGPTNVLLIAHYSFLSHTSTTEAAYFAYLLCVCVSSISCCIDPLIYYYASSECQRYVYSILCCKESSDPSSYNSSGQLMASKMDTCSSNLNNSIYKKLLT
Procedure: FIGS. 1A-1D depicts concentration-response curves for PAR1 antagonists in the TFLLRN-NH2-mediated (5 μM) intracellular calcium mobilization (iCa^2+) assay with Ea.hy926 cells: A) 35 (VAK-7), B) 39 (NRD-23), C) 9 (NRD-25), D) 38 (NRD-21). Cells were loaded with the calcium-binding dye Fluo-4/AM, and changes in calcium concentration were measured with a plate reader.
Our interest in measuring the effects of parmodulins in endothelial cells led us to develop a protocol for an […] calcium mobilization (iCa^2+) assay using adherent Ea.hy926 cells in 96 well plates.^24 This assay also offers higher throughput and lower variability than the platelet P-selectin assay, so we have utilized it as our primary assay for our ongoing studies. Compounds were screened in 96 well plates at a concentration of 10 μM, using the PAR1 tethered ligand peptide TFLLRN (5 μM) as agonist.
The intracellular calcium mobilization assay was performed with Ea.hy926 cells according to our published protocol (Bioorg. Med. Chem. 2018, 9, 2514-2529), using TFLLRN-NH2 as PAR1 agonist.
^aAssays were performed with adherent EA.hy926 endothelial cells. % Inhibition was measured at 10 μM with 5 μM TFLLRN-NH2 and n=4 wells, unless otherwise noted, with standard error of the mean (SEM) provided. pIC50s (-logIC50S) were estimated from curves fitted to measurements on 3 separate wells for each concentration, using 4-variable non-linear regression in GraphPad Prism v.6.

[2] = stability in human liver microsomes; type: in vitro ADME; conditions: 1 h
PAR1 [3] = biological target: T1, PAR1; conditions: from reference 24; cited from earlier work
mouse plasma stability = type: in vitro ADME; conditions: after 4 h in mouse plasma
Procedure: The term “plasma stability” as used herein refers to the ability of the compound to remain intact after incubation with plasma, for example, mouse plasma or human plasma, after a certain period of time. For example, the compounds of the present invention (e.g., compounds of formula I) have a greater half-life for plasma stability than prior compounds (for example, greater half-life stability than ML161). Methods of determining the plasma stability of the compounds are known in the art. For example, one can measure the amount of compound remaining by HPLC after a 4 h incubation in plasma, or if multiple time points are taken, a half-life for plasma stability can be calculated. As described in the Examples and Table 5, the % compound remaining after 4 h-incubation in mouse plasma is substantially better than the compounds of the prior art (e.g., ML161). For example, increased plasma stability can be at least 20% of the compound remains after 4 hour incubation in plasma, alternatively at least 30% of the compound remains after 4 hour incubation in plasma.
We measured its stability and a number of parameters relevant to its use as an in vivo probe (Table 5, FIG. 7). Importantly, NRD-21 is much more plasma stable than ML161. After 4 h in mouse plasma, 32% of NRD-21 remained, while ML161 was less than 1%.

[4] = biological target: T2, peripheral benzodiazepine receptor (PBR) (Rattus norvegicus, UniProt P16257); assay: PDSP off-target radioligand binding, PBR; conditions: PDSP profiling
T2 construct: Psychoactive Drug Screening Program (PDSP)

human washed platelets = assay: human platelet aggregation assay with PAR1/2 agonist SFLLRN-NH2; type: cell-based; conditions: parmodulins at 10 μM, SFLLRN-NH2 (5 μM)
Procedure: FIGS. 5A-5B depicts results of a human platelet aggregation assay of A) ML161 (10 μM, red trace) and B) NRD-21 (10 μM, red trace) in the presence of the PAR1/2 agonist SFLLRN-NH2 ([…]). Blue traces=DMSO.
Next, an assay was performed to measure the ability of NRD-21 to inhibit platelet aggregation. PAR1 is highly expressed in platelets, and its activation leads to aggregation and coagulation. The platelet aggregation assay was performed with ML161 and NRD-21. In both cases, human washed platelets were incubated with parmodulins at 10 μM, then the PAR1/2 agonist SFLLRN-NH2 (5 μM) was added. (FIG. 5).

[5] = biological target: T3, serotonin transporter (SERT) (Homo sapiens, UniProt P31645); assay: PDSP off-target radioligand binding, SERT
T3 construct: Psychoactive Drug Screening Program (PDSP)
T3 sequence (P31645 whole entry, species assumed): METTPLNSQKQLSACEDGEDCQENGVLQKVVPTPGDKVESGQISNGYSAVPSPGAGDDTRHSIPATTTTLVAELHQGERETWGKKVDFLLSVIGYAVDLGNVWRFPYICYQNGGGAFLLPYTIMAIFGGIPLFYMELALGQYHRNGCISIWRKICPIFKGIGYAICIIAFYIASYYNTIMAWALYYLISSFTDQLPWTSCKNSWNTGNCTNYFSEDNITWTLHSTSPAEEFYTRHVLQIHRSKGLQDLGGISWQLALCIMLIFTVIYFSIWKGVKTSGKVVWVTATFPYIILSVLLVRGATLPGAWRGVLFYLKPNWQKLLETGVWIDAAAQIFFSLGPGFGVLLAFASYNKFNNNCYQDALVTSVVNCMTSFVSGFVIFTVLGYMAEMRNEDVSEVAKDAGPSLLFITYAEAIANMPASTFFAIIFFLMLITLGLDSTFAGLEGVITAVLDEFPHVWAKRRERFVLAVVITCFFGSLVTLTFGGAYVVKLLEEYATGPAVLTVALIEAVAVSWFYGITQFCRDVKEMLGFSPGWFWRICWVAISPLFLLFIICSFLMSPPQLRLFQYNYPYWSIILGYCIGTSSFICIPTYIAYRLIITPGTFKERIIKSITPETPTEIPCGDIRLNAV

[6] = species not stated in b8; mouse plasma; reference 20; cited from earlier work
[7] = tested on: necrosis of coronary tissue; conditions: mouse MI model, reference 23; cited from earlier work
human plasma stability = type: in vitro ADME; conditions: after 4 h in human plasma
Description: FIG. 8. Human plasma stability of ML161 (left) and NRD-21 (right). Points indicate the natural logarithm of the average concentration of compound remaining, with 3 replicates at each time point.

[8] = tested on: tissue factor (TF) expression; assay: qPCR assay of TNF-α induced tissue factor (TF) expression in HUVEC; type: cell-based, human; conditions: 10 μM inhibitor, TNF-α 25 ng/mL, mRNA at 4 h
Procedure: FIG. 6 is a graph depicting results of a qPCR assay (n=3) measuring the inhibition of TNF-α (25 ng/mL) induced tissue factor (TF) expression in HUVEC after treatment with ML161 and NRD-21 (10 μM). Inhibitors were added at t=0, TNF-α was added at t=1 h, and mRNA was measured at t=4 h.
To this end, we performed a qPCR assay measuring the expression of tissue factor (TF) in endothelial cells (HUVEC) in response to the inflammatory cytokine Tumor Necrosis Factor-alpha (TNF-α). TF has been long established to mediate the pro-inflammatory and pro-coagulant effects^27 of TNF-α^28,29 and endotoxins,^30 and unnatural TF expression is therefore the driver of disseminated intravascular coagulation (DIC) observed under conditions of cancer or sepsis.^31 We measured the level of TF mRNA 4 h after treatment with ML161 or NRD-21 followed by the addition of TNF-α (FIG. 6).

[9] = kinetic aqueous solubility assay; type: physicochemical; conditions: aqueous solution with 2.5% DMSO
hepG2 = assay: toxicity in a human cell line (hepG2); type: cell-based

O=C(Nc1cccc(NC(=O)C2CCOC2)c1)c1ccccc1Br (centres unmarked) [Compound 11, N-[3-(2-bromobenzamido)phenyl]oxolane-3-carboxamide]
inhibition at 10 µM (PAR1 [1]): 44 ± 2%

O=C(Nc1cccc(NC(=O)C2CCCO2)c1)c1ccccc1Br (centres unmarked) [Compound 10, N-[3-(2-bromobenzamido)phenyl]oxolane-2-carboxamide]
inhibition at 10 µM (PAR1 [1]): 42 ± 3%

CCCC(=O)Nc1cccc(NC(=O)c2ccccc2Br)c1 [ML161, reference compound]
stability in the presence of human liver microsomes [2]: excellent stability
mode of action at PAR1 signaling via Gq (PAR1 [3]): selective, reversible, and allosteric inhibitors (negative allosteric modulators)
% compound remaining in mouse plasma (mouse plasma stability): less than 1%
effect on radioligand binding to PBR [4]: inhibition of binding
inhibition of platelet aggregation (human washed platelets): Complete inhibition of platelet aggregation
effect on SERT in radioligand binding profiling [5]: activation
stability in plasma [6]: low stability in plasma
minimizing necrosis of coronary tissue [7]: highly effective at minimizing necrosis of coronary tissue
% compound remaining in human plasma (human plasma stability): 79%
TF mRNA level after TNF-α [8]: blocked the ˜3-fold increase in TF expression

O=C(Nc1cccc(NC(=O)c2ccccc2Br)c1)c1cocn1 [Compound 6, N-[3-(2-bromobenzamido)phenyl]-1,3-oxazole-4-carboxamide]
iCa2+ assay pIC50 (PAR1 [1]): 6.4 ± 0.1
inhibition at 10 µM (PAR1 [1]): 82 ± 1%

O=C(Nc1cccc(NC(=O)c2ccccc2Cl)c1)c1cnco1 [Compound 7, N-[3-(2-chlorobenzamido)phenyl]-1,3-oxazole-5-carboxamide]
IC50 (PAR1 [1]): 398 nM
inhibition at 10 µM (PAR1 [1]): 66 ± 13%

O=C(Nc1cccc(NC(=O)c2ccccc2Br)c1)c1cnco1 [Compound 5, N-[3-(2-bromobenzamido)phenyl]-1,3-oxazole-5-carboxamide]
solubility [9]: 17 µM (≈ 6.57 µg/mL)
stability in the presence of human liver microsomes [2]: no apparent degradation after 1 h
% compound remaining in mouse plasma (mouse plasma stability): 32%
effect on radioligand binding to PBR [4]: inhibition of binding
mode of action at PAR1 (PAR1 [1]): selective negative allosteric modulator of PAR1
iCa2+ assay pIC50 (PAR1 [1]): 6.3 ± 0.1
inhibition at 10 µM (PAR1 [1]): 59 ± 13%
inhibition of platelet aggregation (human washed platelets): Complete inhibition of platelet aggregation
effect on SERT in radioligand binding profiling [5]: activation
% compound remaining in human plasma (human plasma stability): 97%
toxicity in hepG2 (hepG2): no measurable toxicity
TF mRNA level after TNF-α [8]: dropping TF RNA levels to below baseline levels

O=C(Nc1cccc(NC(=O)c2ccccc2Br)c1)c1ccoc1 [Compound 9, N-[3-(2-bromobenzamido)phenyl]furan-3-carboxamide]
IC50 (PAR1 [1]): 40.7 nM
inhibition at 10 µM (PAR1 [1]): 97 ± 13%

O=C(Nc1cccc(NC(=O)c2ccccc2Br)c1)c1cncs1 [Compound 8, N-[3-(2-bromobenzamido)phenyl]-1,3-thiazole-5-carboxamide]
IC50 (PAR1 [1]): 93.3 nM
inhibition at 10 µM (PAR1 [1]): 56 ± 6%
